# Experimental data from patent US20040133038A1, “Method of purifying aromatic polycarboxylic acid” (priority 2001, published 2004).
# Read-outs that look alike come from different tables or passages of the source.
# Test: solubility in water
# Format: physicochemical
structure (smiles),measurement,setting,value
"O=C(O)c1ccc2cc(C(=O)O)ccc2c1 [2,6-naphthalenedicarboxylic acid]","amount dissolved in 600 g of water, calculated from the solubility",,36 g
O=C(O)c1ccc(-c2ccc(C(=O)O)cc2)cc1 [biphenyldicarboxylic acid],solubility in water relative to that of terephthalic acid,,1/10
O=C(O)c1ccc2cc(C(=O)O)ccc2c1 [naphthalenedicarboxylic acid],solubility in water relative to that of terephthalic acid,fraction of the solubility of terephthalic acid,1/10
O=C(O)c1ccc(C(=O)O)cc1 [terephthalic acid],solubility in water,,6.5 g/100 g
same,"amount dissolved in 600 g of water, calculated from the solubility","600 g of water, 230° C.",39 g
